Measurements published in the supplement of paper PMC10307832.

Experiments:
Assay in all cases: relative viability (nuclei count vs DMSO), 5 days (fraction); higher = more cells survive
[1] = tested on: NCI-H1755
Method in brief: (§1)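 Relative viability was taken as the ratio of nuclei in treated wells to nuclei in vehicle wells. Lung cancer cell lines in 1536-well plates received compounds by pin tool one day after seeding, either one drug alone or a fixed anchor-drug dose plus five library-drug doses (not always all listed) in √10 steps. Nuclei were counted on 4× images after 5 days of treatment, and values are medians of duplicate plates.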

[2] = tested on: NCI-H520
Method in brief: as §1

[3] = tested on: NCI-H522
Method in brief: as §1

[4] = tested on: LCLC-103H
Method in brief: as §1

[5] = tested on: NCI-H441
Method in brief: as §1

[6] = tested on: NCI-H2347
Method in brief: as §1

[7] = tested on: SK-MES-1
Method in brief: as §1

[8] = tested on: NCI-H727
Method in brief: as §1

[9] = tested on: NCI-H2170
Method in brief: as §1

[10] = tested on: RERF-LC-KJ
Method in brief: as §1

[11] = tested on: NCI-H1355
Method in brief: as §1

[12] = tested on: NCI-H460
Method in brief: as §1

[13] = tested on: SW 900
Method in brief: as §1

[14] = tested on: NCI-H322M
Method in brief: as §1

[15] = tested on: NCI-H650
Method in brief: as §1

[16] = tested on: NCI-H1651
Method in brief: as §1

[17] = tested on: NCI-H1792
Method in brief: as §1

[18] = tested on: NCI-H1915
Method in brief: as §1

[19] = tested on: NCI-H661
Method in brief: as §1

[20] = tested on: PC-14
Method in brief: as §1

[21] = tested on: LXF-289
Method in brief: as §1

[22] = tested on: NCI-H3122
Method in brief: as §1

Clc1ccc(Nc2nnc(Cc3ccncc3)c3ccccc23)cc1 [Vatalanib] + CC(=O)c1c(C)c2cnc(Nc3ccc(N4CCNCC4)cn3)nc2n(C2CCCC2)c1=O [Palbociclib] (partner 0.5 µM)
relative viability ([1]; first compound 0.04 µM): 0.473 | relative viability ([1]; first compound 0.1265 µM): 0.474 | relative viability ([1]; first compound 0.4 µM): 0.457 | relative viability ([1]; first compound 1.265 µM): 0.445 | relative viability ([1]; first compound 4 µM): 0.425 | relative viability ([2]; first compound 0.04 µM): 0.214 | relative viability ([2]; first compound 0.1265 µM): 0.242 | relative viability ([2]; first compound 0.4 µM): 0.255 | relative viability ([2]; first compound 1.265 µM): 0.199 | relative viability ([2]; first compound 4 µM): 0.19 | relative viability ([3]; first compound 0.04 µM): 0.872 | relative viability ([3]; first compound 0.1265 µM): 1.06 | relative viability ([3]; first compound 0.4 µM): 1.18 | relative viability ([3]; first compound 1.265 µM): 1.06 | relative viability ([3]; first compound 4 µM): 0.993 | relative viability ([4]; first compound 0.04 µM): 0.506 | relative viability ([4]; first compound 0.1265 µM): 0.452 | relative viability ([4]; first compound 0.4 µM): 0.503 | relative viability ([4]; first compound 1.265 µM): 0.443 | relative viability ([4]; first compound 4 µM): 0.513 | relative viability ([5]; first compound 0.04 µM): 0.223 | relative viability ([5]; first compound 0.1265 µM): 0.194 | relative viability ([5]; first compound 0.4 µM): 0.253 | relative viability ([5]; first compound 1.265 µM): 0.194 | relative viability ([5]; first compound 4 µM): 0.223 | relative viability ([6]; first compound 0.04 µM): 0.428 | relative viability ([6]; first compound 0.1265 µM): 0.423 | relative viability ([6]; first compound 0.4 µM): 0.494 | relative viability ([6]; first compound 1.265 µM): 0.418 | relative viability ([6]; first compound 4 µM): 0.446 | relative viability ([7]; first compound 0.04 µM): 0.339 | relative viability ([7]; first compound 0.1265 µM): 0.309 | relative viability ([7]; first compound 0.4 µM): 0.347 | relative viability ([7]; first compound 1.265 µM): 0.309 | relative viability ([7]; first compound 4 µM): 0.305 | relative viability ([8]; first compound 0.1265 µM): 0.611 | relative viability ([8]; first compound 0.4 µM): 0.683 | relative viability ([8]; first compound 1.265 µM): 0.66 | relative viability ([8]; first compound 4 µM): 0.638 | relative viability ([9]; first compound 0.04 µM): 0.415 | relative viability ([9]; first compound 0.1265 µM): 0.443 | relative viability ([9]; first compound 0.4 µM): 0.35 | relative viability ([9]; first compound 1.265 µM): 0.376 | relative viability ([9]; first compound 4 µM): 0.384 | relative viability ([10]; first compound 0.04 µM): 1.08 | relative viability ([10]; first compound 0.1265 µM): 1.05 | relative viability ([10]; first compound 0.4 µM): 1.02 | relative viability ([10]; first compound 1.265 µM): 1.02 | relative viability ([10]; first compound 4 µM): 0.903 | relative viability ([11]; first compound 0.04 µM): 0.434 | relative viability ([11]; first compound 0.1265 µM): 0.428 | relative viability ([11]; first compound 0.4 µM): 0.424 | relative viability ([11]; first compound 1.265 µM): 0.35 | relative viability ([11]; first compound 4 µM): 0.388 | relative viability ([12]; first compound 0.04 µM): 0.152 | relative viability ([12]; first compound 0.1265 µM): 0.169 | relative viability ([12]; first compound 0.4 µM): 0.211 | relative viability ([12]; first compound 1.265 µM): 0.148 | relative viability ([12]; first compound 4 µM): 0.0922 | relative viability ([13]; first compound 0.04 µM): 0.504 | relative viability ([13]; first compound 0.1265 µM): 0.523 | relative viability ([13]; first compound 0.4 µM): 0.534 | relative viability ([13]; first compound 1.265 µM): 0.614 | relative viability ([13]; first compound 4 µM): 0.547 | relative viability ([14]; first compound 0.04 µM): 0.432 | relative viability ([14]; first compound 0.1265 µM): 0.492 | relative viability ([14]; first compound 0.4 µM): 0.49 | relative viability ([14]; first compound 4 µM): 0.501 | relative viability ([15]; first compound 0.04 µM): 0.308 | relative viability ([15]; first compound 0.1265 µM): 0.316 | relative viability ([15]; first compound 0.4 µM): 0.298 | relative viability ([15]; first compound 1.265 µM): 0.32 | relative viability ([15]; first compound 4 µM): 0.32 | relative viability ([16]; first compound 0.04 µM): 0.51 | relative viability ([16]; first compound 0.1265 µM): 0.496 | relative viability ([16]; first compound 0.4 µM): 0.479 | relative viability ([16]; first compound 1.265 µM): 0.532 | relative viability ([16]; first compound 4 µM): 0.513 | relative viability ([17]; first compound 0.04 µM): 0.613 | relative viability ([17]; first compound 0.1265 µM): 0.543 | relative viability ([17]; first compound 0.4 µM): 0.637 | relative viability ([17]; first compound 1.265 µM): 0.738 | relative viability ([17]; first compound 4 µM): 0.687 | relative viability ([18]; first compound 0.04 µM): 0.533 | relative viability ([18]; first compound 0.1265 µM): 0.526 | relative viability ([18]; first compound 0.4 µM): 0.516 | relative viability ([18]; first compound 1.265 µM): 0.511 | relative viability ([18]; first compound 4 µM): 0.511 | relative viability ([19]; first compound 0.04 µM): 0.411 | relative viability ([19]; first compound 0.1265 µM): 0.387 | relative viability ([19]; first compound 0.4 µM): 0.441 | relative viability ([19]; first compound 1.265 µM): 0.397 | relative viability ([19]; first compound 4 µM): 0.401 | relative viability ([20]; first compound 0.04 µM): 0.523 | relative viability ([20]; first compound 0.1265 µM): 0.492 | relative viability ([20]; first compound 0.4 µM): 0.581 | relative viability ([20]; first compound 1.265 µM): 0.473 | relative viability ([20]; first compound 4 µM): 0.532 | relative viability ([21]; first compound 0.04 µM): 0.611 | relative viability ([21]; first compound 0.1265 µM): 0.544 | relative viability ([21]; first compound 0.4 µM): 0.599 | relative viability ([21]; first compound 1.265 µM): 0.585 | relative viability ([21]; first compound 4 µM): 0.556 | relative viability ([22]; first compound 0.04 µM): 0.163 | relative viability ([22]; first compound 0.1265 µM): 0.213 | relative viability ([22]; first compound 0.4 µM): 0.195 | relative viability ([22]; first compound 1.265 µM): 0.237 | relative viability ([22]; first compound 4 µM): 0.182
